Test results from patent US6784165B1, “Treatment of heart rhythm disturbances with N6-substituted-5′-(N-substituted) carboxamidoadenosines” (Aderis Pharmaceuticals, Inc., priority 1999, dated 2004).

Experiments:
adenosine A1 receptor = biological target: T1, adenosine A1 receptor (Rattus norvegicus, UniProt P25099); test: Rat isolated Langendorff heart paced at 360 bpm: AV conduction (S-V interval) and coronary blood flow; design: Rat isolated hearts were prepared according to the method of Langendorff; from tissue; host or cells: rat isolated perfused heart (Langendorff); conditions: rat isolated heart paced at 360 beats per minute
T1 sequence (P25099 1-326): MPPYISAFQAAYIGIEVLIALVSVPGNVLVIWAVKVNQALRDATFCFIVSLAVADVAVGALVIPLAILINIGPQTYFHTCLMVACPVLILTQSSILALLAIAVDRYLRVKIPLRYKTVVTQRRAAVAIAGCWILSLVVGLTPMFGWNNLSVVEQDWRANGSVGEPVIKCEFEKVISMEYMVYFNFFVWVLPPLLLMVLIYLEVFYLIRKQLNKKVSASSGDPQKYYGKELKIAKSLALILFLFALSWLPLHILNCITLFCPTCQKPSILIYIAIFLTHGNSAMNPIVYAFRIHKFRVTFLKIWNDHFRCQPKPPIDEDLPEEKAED
Procedure: Rat isolated hearts were prepared according to the method of Langendorff in which the coronary vasculature was perfused in a retrograde fashion at constant pressure via the aorta. Coronary blood flow was determined by measuring the volume of fluid leaving the heart. Heart rate was maintained at 360 beats per minute by electrical pacing of the right atrium. Atrioventricular (AV) conduction was determined as the time from the atrial stimulus to the beginning of ventricular depolarization (S-V interval).

[1] = Oral bioavailability estimated from bradycardia AUC oral vs intravenous in conscious rats; type: in vivo, rat; conditions: male, Sprague-Dawley, rat, in vivo
Text: Concentration dose-effect curve data were fitted to a sigmoid curve using Graphpad PRIZM™ software to obtain the concentration or dose of test compound that produces 50% of the maximal obtainable response, in vitro EC50 or in vivo ED50 values, for activation of the adenosine A1 receptor. Responses measured to each dose were the plateau negative inotropic response to cumulative additions of test compound in the isolated left atria and the peak bradycardia in response to bolus intravenous injections of test compound in conscious rats. Oral bioavailability was estimated from pharmacodynamic responses using the expression: (Response AUCoral/Response AUCiv)(Doseiv/Doseoral), where Response AUC is the area under the curve for test compound-induced bradycardia over time.
Male Sprague-Dawley rats were anesthetized with sodium pentobarbital 50 mg/kg i.p., and indwelling catheters were surgically implanted in the carotid artery and jugular vein two days prior to each experiment. During all subsequent experiments, rats were conscious and unrestrained. The carotid artery cannula was attached to a pressure transducer and blood pressure was recorded continuously throughout each experiment using a Grass polygraph. Heart rate was derived from the blood pressure signal using a Grass tachygraph. The measured parameters were allowed from 30 to 90 minutes to stabilize before the administration of test compound.
Test compounds were administered either by oral gavage using a curved, bulbed oral dosing cannula, or by intravenous administration via the jugular vein indwelling catheter. Rats dosed orally were fasted overnight before dosing, with water available ad libitum. Because the heart rate responses following intravenous administration of test compound rapidly returned to baseline, more than one dose of test compound could be administered to each rat. However, the responses to oral administration of test compounds were of a prolonged duration and therefore only a single dose could be administered to each rat.
A comparison of the area under the bradycardia vs. time curve (AUC) following intravenous administration with the AUC following oral administration was used as a measure of oral bioavailability.

[2] = tested on: guinea pig isolated heart; test: Guinea pig isolated heart paced at 300-360 bpm: AV conduction interval versus coronary perfusate flow
Procedure: (§1) Guinea pig isolated hearts were prepared according to the methods described in Example 5. In the first portion of the experiment designed to determine the effect of heart rate on the negative dromotropic activity of Compound A, hearts were allowed to beat spontaneously or electrically paced either at 200 beats per minute (approximately 20% above the spontaneous rate) or at 300-360 beats per minute (approximately 80% above the spontaneous rate). Atrioventricular (AV) conduction interval (AV interval) was determined as the time from the atrial stimulus to the beginning of ventricular depolarization. The AV interval measurements were performed at each pacing rate with increased concentrations of Compound A as described in Example 5. Upon electrical pacing at 200 beats per minute, Compound A at a mean concentration of 3.9 nM produced a mean maximal 58% increase in AV interval, and heart block at a mean minimal concentration of 5.1 nM. […] The results are summarized in the table below, with data from spontaneously beating hearts included for comparative purposes:
In order to determine the differential potencies of Compound A for negative […] activity versus coronary vasodilation in paced hearts, a different set of experiments was conducted in which individual hearts were used to collect measurements for each action. Experimental conditions as described in Example 6 were used, with guinea pig isolated hearts being paced at 300-360 beats per minute. AV conduction interval was determined as described in Example 6. Coronary perfusate flow data was determined by measuring the volume of fluid leaving the heart. AV conduction interval data and coronary perfusate flow data were collected in the presence of increasing concentrations of Compound A. The results are shown in FIG. 3, with dose-related increases for both AV conduction interval and coronary perfusate flow. The differential for these effects is readily apparent. The mean concentration of Compound A that produced a maximal increase in AV conduction time was 0.76 nM.

[3] = tested on: guinea pig isolated spontaneously beating heart; test: Guinea pig isolated spontaneously beating heart (Langendorff): heart rate and AV interval
Procedure: Guinea pig isolated hearts were prepared according to the method of Langendorff in which the coronary vasculature was perfused in a retrograde fashion at constant pressure via the aorta. Compound A was administered to the spontaneously beating hearts by infusion into the perfusion line supplying buffer to the coronary vasculature. The concentration of Compound A was adjusted by changes in the infusion rate and/or changes in the concentration of infusion solutions. The concentration of Compound A present in the perfusate was calculated by dividing the rate of Compound A infused by the coronary flow rate. Spontaneously beating heart rate and AV interval were recorded.

[4] = tested on: guinea pig isolated heart; test: Guinea pig isolated heart model of paroxsymal supraventricular tachycardia (200/300/200 bpm pacing)
Procedure: as §1
Using the experimental conditions described in Example 6, individual hearts were paced at 200 bpm for one minute followed abruptly by one minute of pacing at 300 bpm, after which the pacing rate was returned to 200 bpm. The 300 bpm pacing cycle was intended to simulate an episode of supraventricular tachycardia. This pacing sequence was conducted in the presence of vehicle and in the presence of increasing concentrations of Compound A. The results are expressed in FIG. 2. Compound A, at a mean concentration of 2 nM that had little effect on AV interval at 200 bpm induced AV block within 30 seconds during the 300 bpm episode.

[5] = paced at 300-360 beats per minute
[6] = heart rate spontaneous (appro. 170 bpm)
[7] = spontaneously beating guinea pig heart

With `CCNC(=O)[C@H]1O[C@@H](n2cnc3c(NC4CCCC4)ncnc32)[C@H](O)[C@@H]1O` [Compound A, ethyl N^6-cyclopentyladenosine-5′-uronamide] the “mean concentration at maximal increase in S-V interval” value (adenosine A1 receptor) was 6.8 nM, the “mean concentration for AV conduction blockade” value (adenosine A1 receptor) was 8.3 nM and the bioavailability [1] was 53%. The EC50 ([2]; Cavia porcellus, paced at 300-360 beats per minute, read-out: EC50 for increase in coronary perfusate flow) was 0.032 µM, the “mean coronary perfusate flow rate reached” value ([2]; increase from a mean flow rate of 8.5 mL/min, paced at 300-360 bpm) was 14.2 mL/min and the “mean concentration producing heart block” value [2, 5] was 1.09 nM. For the same compound, the “mean concentration that produced a maximal increase in AV conduction time” value [2, 5] was 0.76 nM, the “potency at slowing AV conduction versus increasing coronary perfusate flow” value [2, 5] was “greater than 40 fold” and the “mean maximal increase in AV interval” value ([2]; paced at 300-360 beats per minute, at 0.76 nM) was 23%. The EC50 ([3]; Cavia porcellus, spontaneously beating guinea pig heart, read-out: EC50 for decrease in heart rate) was 0.0032 µM, the “Mean Concentration of Compound A Required to Produce Maximal AV Interval” value [3, 6] was 11.7 nM and the “Mean Minimal Concentration of Compound A Required to Produce Heart Block” value [3, 6] was 13 nM. For the same compound, the “maximal decrease in heart rate” value [3, 7] was 58%, the “maximal increase in AV interval over basal values” [3, 7] was 34% and the “effect on AV interval at 200 bpm pacing” value ([4]; 2 nM, 200 bpm pacing before the episode) was “little effect”. The “time to AV block during the 300 bpm episode” value ([4]; 2 nM, 300 bpm pacing) was no more than 30 s, the “AV interval when pacing was returned to 200 bpm” value ([4]; 2 nM, after the 300 bpm episode) was “returned to near normal values” and the “mean concentration inducing AV block during the 300 bpm pacing episode” value ([4]; PSVT model, 300 bpm episode) was 2 nM.
